Experimental data published in PubChem BioAssay (NCI).
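Tested at 5 concentrations; 48 h exposure; 96-well plates; endpoints linearly interpolated, else capped at highest concentration. At the GI50, growth is halved. The concentration for full growth arrest is given as TGI.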

How the values were obtained:
Test in all cases: inhibition of tumour cell growth, NCI panel, 48 h
786-0 renal = system: 786-0 renal
A498 renal = system: A498 renal
A549 NSCLC = system: A549 NSCLC
ACHN renal = system: ACHN renal
BT-549 breast = system: BT-549 breast
CAKI-1 renal = system: CAKI-1 renal
CCRF-CEM leukemia = system: CCRF-CEM leukemia
COLO 205 colon = system: COLO 205 colon
DU-145 prostate = system: DU-145 prostate
EKVX NSCLC = system: EKVX NSCLC
HCC-2998 colon = system: HCC-2998 colon
HCT-116 colon = system: HCT-116 colon
HCT-15 colon = system: HCT-15 colon
HL-60(TB) leukemia = system: HL-60(TB) leukemia
HOP-62 NSCLC = system: HOP-62 NSCLC
HOP-92 NSCLC = system: HOP-92 NSCLC
HS 578T breast = system: HS 578T breast
HT29 colon = system: HT29 colon
IGROV1 ovarian = system: IGROV1 ovarian
K-562 leukemia = system: K-562 leukemia
KM12 colon = system: KM12 colon
LOX IMVI melanoma = system: LOX IMVI melanoma
M14 melanoma = system: M14 melanoma
MALME-3M melanoma = system: MALME-3M melanoma
MCF7 breast = system: MCF7 breast
MDA-MB-231 breast = system: MDA-MB-231 breast
MDA-MB-435 = system: MDA-MB-435
MDA-MB-468 breast = system: MDA-MB-468 breast
MOLT-4 leukemia = system: MOLT-4 leukemia
NCI-H226 lung = system: NCI-H226 lung
NCI-H23 lung = system: NCI-H23 lung
NCI-H460 lung = system: NCI-H460 lung
NCI-H522 lung = system: NCI-H522 lung
OVCAR-3 ovarian = system: OVCAR-3 ovarian
OVCAR-4 ovarian = system: OVCAR-4 ovarian
OVCAR-5 ovarian = system: OVCAR-5 ovarian
OVCAR-8 ovarian = system: OVCAR-8 ovarian
PC-3 prostate = system: PC-3 prostate
RPMI-8226 leukemia = system: RPMI-8226 leukemia
RXF 393 renal = system: RXF 393 renal
SF-268 CNS = system: SF-268 CNS
SF-295 CNS = system: SF-295 CNS
SF-539 CNS = system: SF-539 CNS
SK-MEL-2 melanoma = system: SK-MEL-2 melanoma
SK-MEL-28 melanoma = system: SK-MEL-28 melanoma
SK-MEL-5 melanoma = system: SK-MEL-5 melanoma
SK-OV-3 ovarian = system: SK-OV-3 ovarian
SN12C renal = system: SN12C renal
SNB-19 CNS = system: SNB-19 CNS
SR leukemia = system: SR leukemia
SW-620 colon = system: SW-620 colon
T-47D breast = system: T-47D breast
TK-10 renal = system: TK-10 renal
U251 CNS = system: U251 CNS
UACC-257 melanoma = system: UACC-257 melanoma
UACC-62 melanoma = system: UACC-62 melanoma
UO-31 renal = system: UO-31 renal

Cn1cc(-c2cc(N)n3nc(-c4c[nH]c5ccc(Cl)cc45)cc3n2)c2cc(Br)cnc21
GI50 (786-0 renal): 1.64 µM | TGI (786-0 renal): 3.06 µM | GI50 (A498 renal): 13.1 µM | TGI (A498 renal): 29.4 µM | GI50 (A549 NSCLC): 2.13 µM | TGI (A549 NSCLC): 6.32 µM | GI50 (ACHN renal): 1.87 µM | TGI (ACHN renal): 3.92 µM | GI50 (BT-549 breast): 13.8 µM | TGI (BT-549 breast): 28.6 µM | GI50 (CAKI-1 renal): 3.07 µM | TGI (CAKI-1 renal): 16.7 µM | GI50 (CCRF-CEM leukemia): 3.32 µM | TGI (CCRF-CEM leukemia): 10.7 µM | GI50 (COLO 205 colon): 2.83 µM | TGI (COLO 205 colon): 6.04 µM | GI50 (DU-145 prostate): 3.18 µM | TGI (DU-145 prostate): 9.77 µM | GI50 (EKVX NSCLC): 3.04 µM | TGI (EKVX NSCLC): 14.1 µM | GI50 (HCC-2998 colon): 1.76 µM | TGI (HCC-2998 colon): 3.36 µM | GI50 (HCT-116 colon): 2.01 µM | TGI (HCT-116 colon): 4.03 µM | GI50 (HCT-15 colon): 1.61 µM | TGI (HCT-15 colon): 3.02 µM | GI50 (HL-60(TB) leukemia): 2.06 µM | TGI (HL-60(TB) leukemia): 5.15 µM | GI50 (HOP-62 NSCLC): 4.41 µM | TGI (HOP-62 NSCLC): 27.6 µM | GI50 (HOP-92 NSCLC): 2.16 µM | TGI (HOP-92 NSCLC): 4.58 µM | GI50 (HS 578T breast): 12.6 µM | TGI (HS 578T breast): 55.5 µM | GI50 (HT29 colon): 1.93 µM | TGI (HT29 colon): 3.84 µM | GI50 (IGROV1 ovarian): 1.94 µM | TGI (IGROV1 ovarian): 4.47 µM | GI50 (K-562 leukemia): 2.4 µM | TGI (K-562 leukemia): 6.27 µM | GI50 (KM12 colon): 2.17 µM | TGI (KM12 colon): 4.87 µM | GI50 (LOX IMVI melanoma): 1.95 µM | TGI (LOX IMVI melanoma): 3.44 µM | GI50 (M14 melanoma): 2.37 µM | TGI (M14 melanoma): 5.88 µM | GI50 (MALME-3M melanoma): 2.18 µM | TGI (MALME-3M melanoma): 5.19 µM | GI50 (MCF7 breast): 1.77 µM | TGI (MCF7 breast): 3.31 µM | GI50 (MDA-MB-231 breast): 1.98 µM | TGI (MDA-MB-231 breast): 4.27 µM | GI50 (MDA-MB-435): 2.06 µM | TGI (MDA-MB-435): 4.48 µM | GI50 (MDA-MB-468 breast): 1.32 µM | TGI (MDA-MB-468 breast): 2.73 µM | GI50 (MOLT-4 leukemia): 1.76 µM | TGI (MOLT-4 leukemia): 5.68 µM | GI50 (NCI-H226 lung): 2.23 µM | TGI (NCI-H226 lung): 11.5 µM | GI50 (NCI-H23 lung): 2.63 µM | TGI (NCI-H23 lung): 7.83 µM | GI50 (NCI-H460 lung): 1.92 µM | TGI (NCI-H460 lung): 3.81 µM | GI50 (NCI-H522 lung): 1.9 µM | TGI (NCI-H522 lung): 3.88 µM | GI50 (OVCAR-3 ovarian): 3.23 µM | TGI (OVCAR-3 ovarian): 9.96 µM | GI50 (OVCAR-4 ovarian): 2.98 µM | TGI (OVCAR-4 ovarian): 9.01 µM | GI50 (OVCAR-5 ovarian): 2.01 µM | TGI (OVCAR-5 ovarian): 6.48 µM | GI50 (OVCAR-8 ovarian): 2.29 µM | TGI (OVCAR-8 ovarian): 5.22 µM | GI50 (PC-3 prostate): 2.27 µM | TGI (PC-3 prostate): 5.79 µM | GI50 (RPMI-8226 leukemia): 3.88 µM | TGI (RPMI-8226 leukemia): 34 µM | GI50 (RXF 393 renal): 1.72 µM | TGI (RXF 393 renal): 3.32 µM | GI50 (SF-268 CNS): 7.39 µM | TGI (SF-268 CNS): 43.9 µM | GI50 (SF-295 CNS): 1.84 µM | TGI (SF-295 CNS): 4.04 µM | GI50 (SF-539 CNS): 1.66 µM | TGI (SF-539 CNS): 3.22 µM | GI50 (SK-MEL-2 melanoma): 2.63 µM | TGI (SK-MEL-2 melanoma): 7.51 µM | GI50 (SK-MEL-28 melanoma): 2.1 µM | TGI (SK-MEL-28 melanoma): 4.97 µM | GI50 (SK-MEL-5 melanoma): 4.35 µM | TGI (SK-MEL-5 melanoma): 17 µM | GI50 (SK-OV-3 ovarian): 18.6 µM | TGI (SK-OV-3 ovarian): 72.1 µM | GI50 (SN12C renal): 10.1 µM | TGI (SN12C renal): 26.4 µM | GI50 (SNB-19 CNS): 3.25 µM | TGI (SNB-19 CNS): 11.5 µM | GI50 (SR leukemia): 2.27 µM | TGI (SR leukemia): > 100 µM | GI50 (SW-620 colon): 1.82 µM | TGI (SW-620 colon): 3.5 µM | GI50 (T-47D breast): 2.38 µM | TGI (T-47D breast): 7.3 µM | GI50 (TK-10 renal): 2.27 µM | TGI (TK-10 renal): 7.2 µM | GI50 (U251 CNS): 1.81 µM | TGI (U251 CNS): 3.39 µM | GI50 (UACC-257 melanoma): 12.5 µM | TGI (UACC-257 melanoma): 25.5 µM | GI50 (UACC-62 melanoma): 1.69 µM | TGI (UACC-62 melanoma): 3.6 µM | GI50 (UO-31 renal): 2.93 µM | TGI (UO-31 renal): 12.1 µM
